Results published in patent US8426345B2, “Method of drug design” (Alchemia Limited, priority 2005, dated 2013).

Target: T1, Human SST5 somatostatin receptor (Homo sapiens, UniProt P35346)
T1 construct: expressed in transfected cells; host or cells: HEK-293 EBNA cells (membranes)
Assay: Filter plate radio-ligand binding assay for SST5 receptor ([125I]SST-14 displacement)
Settings: for % SST5 radio-ligand binding displaced at conc 0.25: conc 0.25 μM; for % SST5 radio-ligand binding displaced at conc 0.25 / % SST5 radio-ligand binding displaced at conc 1.0 / % SST5 radio-ligand binding displaced at conc 0.5 / % SST5 radio-ligand binding displaced at conc 10: 3P library; for % SST5 radio-ligand binding displaced at conc 1.0: conc 1.0 μM; for % SST5 radio-ligand binding displaced at conc 0.5: conc 0.5 μM; for % SST5 radio-ligand binding displaced at conc 10: conc 10 μM; for % SST5 radio-ligand binding displaced at conc 50: compound conc 50 μM; for % SST5 radio-ligand binding displaced at conc 50 / % SST5 radio-ligand binding displaced at conc 250 / % SST5 radio-ligand binding displaced at conc 500: 2P library; for % SST5 radio-ligand binding displaced at conc 250: compound conc 250 μM; for % SST5 radio-ligand binding displaced at conc 500: compound conc 500 μM

T1 sequence (P35346 whole entry): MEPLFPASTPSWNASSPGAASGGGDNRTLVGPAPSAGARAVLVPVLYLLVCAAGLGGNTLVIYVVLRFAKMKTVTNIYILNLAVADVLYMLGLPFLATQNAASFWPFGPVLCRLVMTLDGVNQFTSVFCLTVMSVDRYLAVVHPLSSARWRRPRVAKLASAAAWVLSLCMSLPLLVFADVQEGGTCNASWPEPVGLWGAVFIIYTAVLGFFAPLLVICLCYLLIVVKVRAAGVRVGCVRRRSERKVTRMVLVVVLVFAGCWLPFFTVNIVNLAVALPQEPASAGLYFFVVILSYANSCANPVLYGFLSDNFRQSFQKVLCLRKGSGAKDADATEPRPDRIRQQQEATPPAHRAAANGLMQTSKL

Row | SMILES | % SST5 radio-ligand binding displaced at conc 0.25 | % SST5 radio-ligand binding displaced at conc 1.0 | % SST5 radio-ligand binding displaced at conc 50 | % SST5 radio-ligand binding displaced at conc 250 | % SST5 radio-ligand binding displaced at conc 500 | also measured
1 | COC[C@H]1O[C@H](OCc2ccc3ccccc3c2)[C@H](NC(=O)CCN)[C@@H](OCc2cccc(Cl)c2Cl)[C@@H]1O [Compound 117] | ++ (% SST5 radio-ligand binding displaced at conc (μM) >60%) | ++ (% SST5 radio-ligand binding displaced at conc (μM) >60%) | – | – | – | –
2 | COCC1OC(OCc2ccc3ccccc3c2)C(NC(=O)CCCN)C(OCc2ccccc2)C1O (mixture of isomers) [Compound 120] | – | – | – | – | – | % SST5 radio-ligand binding displaced at conc 0.5: + (% SST5 radio-ligand binding displaced at cone (μM) 60>+>40%); % SST5 radio-ligand binding displaced at conc 10: ++ (% SST5 radio-ligand binding displaced at conc (μM) >60%)
3 | COC[C@H]1O[C@@H](OCc2ccc3ccccc3c2)[C@H](NC(=O)CCN)[C@H](OC)[C@@H]1O [Compound 40] | – | – | − (% SST5 radio-ligand binding displaced at cone (μM) −<40%) | ++ (% SST5 radio-ligand binding displaced at conc (μM) >60%) | ++ (% SST5 radio-ligand binding displaced at conc (μM) >60%) | –
4 | COC[C@H]1O[C@@H](SC)[C@H](NC(=O)CCN)[C@H](OCc2ccc(Cl)cc2)[C@@H]1O [Compound 37] | – | – | − (% SST5 radio-ligand binding displaced at cone (μM) −<40%) | − (% SST5 radio-ligand binding displaced at cone (μM) −<40%) | − (% SST5 radio-ligand binding displaced at cone (μM) −<40%) | –
5 | COC[C@H]1O[C@H](OCc2ccc3ccccc3c2)[C@H](NC(=O)CCN)[C@@H](OCc2ccc(Oc3ccccc3)cc2)[C@@H]1O [Compound 118] | ++ (% SST5 radio-ligand binding displaced at conc (μM) >60%) | ++ (% SST5 radio-ligand binding displaced at conc (μM) >60%) | – | – | – | –
6 | COCC1OC(OCc2ccc(Cl)cc2)C(NC(=O)CN)C(OCc2ccc3ccccc3c2)C1O (mixture of isomers) [Compound 174] | − (% SST5 radio-ligand binding displaced at cone (μM) −<40%) | − (% SST5 radio-ligand binding displaced at cone (μM) −<40%) | – | – | – | –
7 | COC[C@H]1O[C@H](OCc2ccc3ccccc3c2)[C@H](NC(=O)CN)[C@@H](OC)[C@@H]1O [Compound 12] | – | – | − (% SST5 radio-ligand binding displaced at cone (μM) −<40%) | − (% SST5 radio-ligand binding displaced at cone (μM) −<40%) | − (% SST5 radio-ligand binding displaced at cone (μM) −<40%) | –
8 | COC[C@H]1O[C@H](OCc2ccc(Cl)cc2)[C@H](NC(=O)CN)[C@H](OC)[C@@H]1O [Compound 33] | – | – | − (% SST5 radio-ligand binding displaced at cone (μM) −<40%) | − (% SST5 radio-ligand binding displaced at cone (μM) −<40%) | − (% SST5 radio-ligand binding displaced at cone (μM) −<40%) | –
9 | COC1C(O)C(COCc2ccc3ccccc3c2)OC(OCc2ccc(Cl)cc2)C1NC(=O)C1CCCN1 (mixture of isomers) [Compound 167] | – | – | – | – | – | % SST5 radio-ligand binding displaced at conc 0.5: ++ (% SST5 radio-ligand binding displaced at conc (μM) >60%); % SST5 radio-ligand binding displaced at conc 10: ++ (% SST5 radio-ligand binding displaced at conc (μM) >60%)
